Tests used:
[1] = tested on: mRNA expressed from the genes (A) to (D) in rat liver; assay: Behavior of genes (mRNA expression level, oligo-DNA microarray) in rat liver after 28-day oral administration; format: in vivo
Procedure, shortened: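 Rat liver RNA after 28 days of daily gavage dosing (male F344, 5 weeks old, four per group). A change reaching 1.5-fold, or 1/1.5, against solvent control scores as significant; opposite direction versus another carcinogen scores as not significant.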

liver = conditions: classification of the substance (Cr+/Cr−); cited from earlier work
rodent = conditions: classification of the substance (C+/C−); cited from earlier work
[2] = classification of the substance (M+/M−); cited from earlier work
[3] = gene group (A), Unigene No. Rn.167075
[4] = gene group (C), Unigene No. Rn.120914

SMILES: Clc1ccc(C(c2ccc(Cl)cc2)C(Cl)(Cl)Cl)cc1 [TS016, Dichloro-diphenyl-trichloroethane]
- Behavior of gene caused by administration of chemical substance, Gene No. 4846 ([1]; gene group (A), Unigene No. Rn.144554): −
- Behavior of gene caused by administration of chemical substance, Gene No. 2026 [1, 3]: −
- Behavior of gene caused by administration of chemical substance, Gene No. 4218 [1, 3]: −
- Behavior of gene caused by administration of chemical substance, Gene No. 6182 ([1]; gene group (A), Unigene No. Rn.5834): +
- Behavior of gene caused by administration of chemical substance, Gene No. 5600 ([1]; gene group (A), Unigene No. Rn.9836): −
- Behavior of gene caused by administration of chemical substance, Gene No. 1494 ([1]; gene group (B), Unigene No. Rn.1430): +
- Behavior of gene caused by administration of chemical substance, Gene No. 2045 ([1]; gene group (B), Unigene No. Rn.19329): +
- Behavior of gene caused by administration of chemical substance, Gene No. 2203 ([1]; gene group (B), Unigene No. Rn.21240): +
- Behavior of gene caused by administration of chemical substance, Gene No. 533 ([1]; gene group (C), Unigene No. Rn.106184): +
- Behavior of gene caused by administration of chemical substance, Gene No. 725 ([1]; gene group (C), Unigene No. Rn.108075): −
- Behavior of gene caused by administration of chemical substance, Gene No. 1163 ([1]; gene group (C), Unigene No. Rn.11766): −
- Behavior of gene caused by administration of chemical substance, Gene No. 4973 ([1]; gene group (C), Unigene No. Rn.118529): −
- Behavior of gene caused by administration of chemical substance, Gene No. 4095 ([1]; gene group (C), Unigene No. Rn.119024): +
- Behavior of gene caused by administration of chemical substance, Gene No. 1334 [1, 4]: −
- Behavior of gene caused by administration of chemical substance, Gene No. 6620 [1, 4]: −
- Behavior of gene caused by administration of chemical substance, Gene No. 6303 ([1]; gene group (C), Unigene No. Rn.123063): −
- Behavior of gene caused by administration of chemical substance, Gene No. 5878 ([1]; gene group (C), Unigene No. Rn.143213): −
- Behavior of gene caused by administration of chemical substance, Gene No. 1131 ([1]; gene group (C), Unigene No. Rn.144946): −
- Behavior of gene caused by administration of chemical substance, Gene No. 1562 ([1]; gene group (C), Unigene No. Rn.14744): −
- Behavior of gene caused by administration of chemical substance, Gene No. 1741 ([1]; gene group (C), Unigene No. Rn.1647): +
- Behavior of gene caused by administration of chemical substance, Gene No. 893 ([1]; gene group (C), Unigene No. Rn.164817): −
- Behavior of gene caused by administration of chemical substance, Gene No. 6026 ([1]; gene group (C), Unigene No. Rn.167685): −
- Behavior of gene caused by administration of chemical substance, Gene No. 154 ([1]; gene group (C), Unigene No. Rn.185941): −
- Behavior of gene caused by administration of chemical substance, Gene No. 1993 ([1]; gene group (C), Unigene No. Rn.18728): −
- Behavior of gene caused by administration of chemical substance, Gene No. 813 ([1]; gene group (C), Unigene No. Rn.201760): −
- Behavior of gene caused by administration of chemical substance, Gene No. 2494 ([1]; gene group (C), Unigene No. Rn.23969): +
- Behavior of gene caused by administration of chemical substance, Gene No. 2546 ([1]; gene group (C), Unigene No. Rn.24561): −
- Behavior of gene caused by administration of chemical substance, Gene No. 3776 ([1]; gene group (C), Unigene No. Rn.43232): −
- Behavior of gene caused by administration of chemical substance, Gene No. 3929 ([1]; gene group (C), Unigene No. Rn.4620): −
- Behavior of gene caused by administration of chemical substance, Gene No. 1119 ([1]; gene group (C), Unigene No. Rn.9757): −
- Behavior of gene caused by administration of chemical substance, Gene No. 6742 ([1]; gene group (C), Unigene No. Rn.9779): +
- Behavior of gene caused by administration of chemical substance, Gene No. 5634 ([1]; gene group (C), Unigene No. Rn.9862): +
- Behavior of gene caused by administration of chemical substance, Gene No. 5726 ([1]; gene group (D), Unigene No. Rn.9939): −
- Liver carcinogenicity (liver): Cr+
- Carcinogenicity (rodent): C+
- Mutagenicity by Ames test [2]: M−

Source: patent US20110039721A1, “METHOD FOR PREDICTION ABOUT CARCINOGENICITY OF SUBSTANCE IN RODENT” (Chemicals Evaluation and Research Institute, priority 2007, published 2011)
